Patent US6806230B1, “Pyrimidine derivatives and herbicides containing them” (Kumiai Chemical Industry Co., Ltd., priority 1999, dated 2004)

What follows are compounds tested on barnyard grass (Eo) (assay: Test Example 1: herbicidal effects by flooded paddy field treatment). Details: dose 100 g active ingredient per 10 ares, examined on the 21st day after treatment, standards of Table 44.
Format: in vivo
Parameters: herbicidal effects, Eo (barnyard grass):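 0-5 growth inhibition grade; 5 = over 90%; 4 = 70-90%; 3 = 50-70%; 2 = 30-50%; 1 = 10-30%; 0 = under 10%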
In short: (§1)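 Herbicidal effect is a graded score assigned 21 days after treatment. Application was one day after sowing into flooded (3 cm) puddled paddy soil, with diluted wettable powder dropped onto the water at 100 g active ingredient per 10 ares. Plants were kept in a greenhouse.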

SMILES	herbicidal effects, Eo (barnyard grass)
CCc1ncncc1C(C(C)C)N(C)C(=O)Cc1ccc(C)cc1 (racemic) [1-435]	5
CCc1ncncc1C(C(C)C)N(C)C(=O)N(C)c1ccccc1 (racemic) [1-538]	5
CCc1ncncc1C(C(C)C)N(C)C(=O)N(C)c1ccc(Cl)cc1 (racemic) [1-540]	5
CCCc1ncncc1C(C(C)C)N(C)C(=O)Cc1ccccc1 (racemic) [1-445]	5
CCc1ncncc1C(C(C)C)N(C)C(=O)Cc1ccccc1 (racemic) [1-432]	5
CCC(C)C(c1cncnc1C(F)(F)F)N(C)C(=O)Cc1cccc(F)c1 (mixture of isomers) [Compound 1-267]	5
CN(C(=O)Cc1ccc(Cl)cc1)C(c1cncnc1C(F)(F)F)C1(C)CC1 (racemic) [1-411]	5
Cc1ccc(C(C)C(=O)N(C)C(c2cncnc2C(F)(F)F)C(C)C)s1 (mixture of isomers) [2-60]	5
CC(C)C(c1cncnc1C(F)(F)F)N(CC#N)C(=O)Cc1ccc(Cl)cc1 (racemic) [1-482]	5
CC(=O)c1ncncc1C(C(C)C)N(C)C(=O)Cc1ccccc1 (racemic) [1-526]	5
COc1ncncc1C(C(C)C)N(C)C(=O)Cc1ccc(Cl)cc1 (racemic) [1-403]	5
CC(C(=O)N(C)C(c1cncnc1C(F)(F)F)C(C)C)c1ccc(Br)s1 (mixture of isomers) [2-61]	5
CON=CC(c1cncnc1C(C)C)N(C)C(=O)Cc1ccc(Cl)cc1 (racemic) [1-464]	5
CC(C)c1ncncc1C(C(C)C)N(C)C(=O)Cc1cccc(F)c1 (racemic) [Compound 1-270]	5
CC(C)C(c1cncnc1C(F)(F)F)N(C)C(=O)N(C)c1ccc(Cl)cc1 (racemic) [1-427]	5
Cc1ccc(N(C)C(=O)N(C)C(c2cncnc2C(C)C)C(C)C)cc1 (racemic) [1-431]	5
CC(C)c1ncncc1C(C(C)C)N(C)C(=O)N(C)c1ccc(Cl)cc1 (racemic) [1-430]	5

These compounds were tested on monochoria (Mo) in the same assay as above. Details: dose 100 g active ingredient per 10 ares, examined on the 21st day after treatment, standards of Table 44.
Format: in vivo
Parameters: herbicidal effects, Mo (monochoria):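 0-5 growth inhibition grade; 5 = over 90%; 4 = 70-90%; 3 = 50-70%; 2 = 30-50%; 1 = 10-30%; 0 = under 10%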
In short: as §1

SMILES	herbicidal effects, Mo (monochoria)
CCc1ncncc1C(C(C)C)N(C)C(=O)Cc1ccc(C)cc1 (racemic) [1-435]	5
CCc1ncncc1C(C(C)C)N(C)C(=O)N(C)c1ccccc1 (racemic) [1-538]	5
CCc1ncncc1C(C(C)C)N(C)C(=O)N(C)c1ccc(Cl)cc1 (racemic) [1-540]	5
CCCc1ncncc1C(C(C)C)N(C)C(=O)Cc1ccccc1 (racemic) [1-445]	5
CCc1ncncc1C(C(C)C)N(C)C(=O)Cc1ccccc1 (racemic) [1-432]	5
CCC(C)C(c1cncnc1C(F)(F)F)N(C)C(=O)Cc1cccc(F)c1 (mixture of isomers) [Compound 1-267]	5
CN(C(=O)Cc1ccc(Cl)cc1)C(c1cncnc1C(F)(F)F)C1(C)CC1 (racemic) [1-411]	5
Cc1ccc(C(C)C(=O)N(C)C(c2cncnc2C(F)(F)F)C(C)C)s1 (mixture of isomers) [2-60]	5
CC(C)C(c1cncnc1C(F)(F)F)N(CC#N)C(=O)Cc1ccc(Cl)cc1 (racemic) [1-482]	5
CC(=O)c1ncncc1C(C(C)C)N(C)C(=O)Cc1ccccc1 (racemic) [1-526]	5
COc1ncncc1C(C(C)C)N(C)C(=O)Cc1ccc(Cl)cc1 (racemic) [1-403]	5
CC(C(=O)N(C)C(c1cncnc1C(F)(F)F)C(C)C)c1ccc(Br)s1 (mixture of isomers) [2-61]	5
CON=CC(c1cncnc1C(C)C)N(C)C(=O)Cc1ccc(Cl)cc1 (racemic) [1-464]	5
CC(C)c1ncncc1C(C(C)C)N(C)C(=O)Cc1cccc(F)c1 (racemic) [Compound 1-270]	5
CC(C)C(c1cncnc1C(F)(F)F)N(C)C(=O)N(C)c1ccc(Cl)cc1 (racemic) [1-427]	5
Cc1ccc(N(C)C(=O)N(C)C(c2cncnc2C(C)C)C(C)C)cc1 (racemic) [1-431]	5
CC(C)c1ncncc1C(C(C)C)N(C)C(=O)N(C)c1ccc(Cl)cc1 (racemic) [1-430]	5

The compounds below were run on barnyard grass (Ec) (assay: Test Example 2: herbicidal effects by upland soil treatment). Details: dose 100 g active ingredient per 10 ares, examined on the 21st day after treatment.
Format: in vivo
Parameters: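 0-5 growth inhibition grade; 5 = over 90%; 4 = 70-90%; 3 = 50-70%; 2 = 30-50%; 1 = 10-30%; 0 = under 10%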
In short: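 Pre-emergence test: barnyard grass and green foxtail sown in upland soil, then soil surface sprayed with wettable-powder formulation at 100 g active ingredient per 10 ares (100 l per 10 ares). Grown in greenhouse; herbicidal effect scored on a rating scale 21 days after treatment.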

SMILES	Ec (herbicidal effects, index)
CCc1ncncc1C(C(C)C)N(C)C(=O)Cc1ccc(C)cc1 (racemic) [1-435]	5
CCc1ncncc1C(C(C)C)N(C)C(=O)N(C)c1ccccc1 (racemic) [1-538]	5
CCc1ncncc1C(C(C)C)N(C)C(=O)N(C)c1ccc(Cl)cc1 (racemic) [1-540]	5
CCCc1ncncc1C(C(C)C)N(C)C(=O)Cc1ccccc1 (racemic) [1-445]	5
CCc1ncncc1C(C(C)C)N(C)C(=O)Cc1ccccc1 (racemic) [1-432]	5
CCC(C)C(c1cncnc1C(F)(F)F)N(C)C(=O)Cc1cccc(F)c1 (mixture of isomers) [Compound 1-267]	5
CN(C(=O)Cc1ccc(Cl)cc1)C(c1cncnc1C(F)(F)F)C1(C)CC1 (racemic) [1-411]	5
Cc1ccc(C(C)C(=O)N(C)C(c2cncnc2C(F)(F)F)C(C)C)s1 (mixture of isomers) [2-60]	5
CC(C)C(c1cncnc1C(F)(F)F)N(CC#N)C(=O)Cc1ccc(Cl)cc1 (racemic) [1-482]	5
CC(=O)c1ncncc1C(C(C)C)N(C)C(=O)Cc1ccccc1 (racemic) [1-526]	5
COc1ncncc1C(C(C)C)N(C)C(=O)Cc1ccc(Cl)cc1 (racemic) [1-403]	5
CC(C(=O)N(C)C(c1cncnc1C(F)(F)F)C(C)C)c1ccc(Br)s1 (mixture of isomers) [2-61]	5
CON=CC(c1cncnc1C(C)C)N(C)C(=O)Cc1ccc(Cl)cc1 (racemic) [1-464]	5
CC(C)c1ncncc1C(C(C)C)N(C)C(=O)Cc1cccc(F)c1 (racemic) [Compound 1-270]	5
CC(C)C(c1cncnc1C(F)(F)F)N(C)C(=O)N(C)c1ccc(Cl)cc1 (racemic) [1-427]	5
Cc1ccc(N(C)C(=O)N(C)C(c2cncnc2C(C)C)C(C)C)cc1 (racemic) [1-431]	5
CC(C)c1ncncc1C(C(C)C)N(C)C(=O)N(C)c1ccc(Cl)cc1 (racemic) [1-430]	5

What follows are compounds tested on barnyard grass (Ec) (assay: Test Example 3: herbicidal effects by foliage treatment in upland field). Details: dose 100 g active ingredient per 10 ares, examined on the 14th day after treatment.
Format: in vivo
Parameters: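 0-5 growth inhibition grade; 5 = over 90%; 4 = 70-90%; 3 = 50-70%; 2 = 30-50%; 1 = 10-30%; 0 = under 10%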
Description: In a 80 cm^2 plastic pot, upland soil was filled, and seeds of barnyard grass (Ec) and green foxtail (Se) were sown and cultured in a green house for 2 weeks. Then, a wettable powder prepared in accordance with Formulation Example 1 was diluted with water and applied to the entire foliage from above the plants by means of a small size spray at a rate of 100 l per 10 ares so that the dose of the active ingredient would be 100 g per 10 ares. Thereafter, cultivation was carried out in a green house, and on the 14th day after the treatment, the herbicidal effects were examined in accordance with the standards of Table 44.

SMILES	Ec (herbicidal effects, index)
CCc1ncncc1C(C(C)C)N(C)C(=O)Cc1ccc(C)cc1 (racemic) [1-435]	4
CCc1ncncc1C(C(C)C)N(C)C(=O)N(C)c1ccccc1 (racemic) [1-538]	4
CCc1ncncc1C(C(C)C)N(C)C(=O)N(C)c1ccc(Cl)cc1 (racemic) [1-540]	4
CCCc1ncncc1C(C(C)C)N(C)C(=O)Cc1ccccc1 (racemic) [1-445]	5
CCc1ncncc1C(C(C)C)N(C)C(=O)Cc1ccccc1 (racemic) [1-432]	5
CCC(C)C(c1cncnc1C(F)(F)F)N(C)C(=O)Cc1cccc(F)c1 (mixture of isomers) [Compound 1-267]	4
CN(C(=O)Cc1ccc(Cl)cc1)C(c1cncnc1C(F)(F)F)C1(C)CC1 (racemic) [1-411]	4
Cc1ccc(C(C)C(=O)N(C)C(c2cncnc2C(F)(F)F)C(C)C)s1 (mixture of isomers) [2-60]	4
CC(C)C(c1cncnc1C(F)(F)F)N(CC#N)C(=O)Cc1ccc(Cl)cc1 (racemic) [1-482]	5
CC(=O)c1ncncc1C(C(C)C)N(C)C(=O)Cc1ccccc1 (racemic) [1-526]	5
COc1ncncc1C(C(C)C)N(C)C(=O)Cc1ccc(Cl)cc1 (racemic) [1-403]	4
CC(C(=O)N(C)C(c1cncnc1C(F)(F)F)C(C)C)c1ccc(Br)s1 (mixture of isomers) [2-61]	4
CON=CC(c1cncnc1C(C)C)N(C)C(=O)Cc1ccc(Cl)cc1 (racemic) [1-464]	4
CC(C)c1ncncc1C(C(C)C)N(C)C(=O)Cc1cccc(F)c1 (racemic) [Compound 1-270]	4
CC(C)C(c1cncnc1C(F)(F)F)N(C)C(=O)N(C)c1ccc(Cl)cc1 (racemic) [1-427]	4
Cc1ccc(N(C)C(=O)N(C)C(c2cncnc2C(C)C)C(C)C)cc1 (racemic) [1-431]	4
CC(C)c1ncncc1C(C(C)C)N(C)C(=O)N(C)c1ccc(Cl)cc1 (racemic) [1-430]	4
